23 compounds from patent publication EP4741390A1, “BIARYL RING COMPOUND, INTERMEDIATE THEREOF, PREPARATION METHOD THEREFOR AND USE THEREOF” (Hangzhou Synrx Therapeutics Biomedical Technology Co., Ltd., priority 2023, dated 2025) can be followed below.

Read-outs that look alike come from different tables or passages of the source.

A word on the IC50: it is the concentration at which inhibition is half-maximal.

Assay [1] concerns the target helicase domain of the Pol θ protein (Homo sapiens, UniProt O75417). It counts as biochemical.
The test system of the next assay is DLD1 BRCA2-/- cells. Kind of assay: Cell viability assay (CTG assay), DLD1 BRCA2-/- cells. Particulars: Homo sapiens, DLD-1, 240 h; CellTiter Glo, read on Day 10, initial concentration 30 µM. In kind it is cell-based. The protocol: (§1) 2. Cell Viability Assay of Pol θ Inhibitor
(§2) The cell viability assay, i.e., the commonly used CTG assay, was conducted for the efficacy of the inhibitor in vitro using the CellTiter Glo reagent (Promega, G7573).
(ATP-based viability assays read luminescence as a measure of living cells.)

Another assay relates to DLD1 wild type. Kind of assay: Cell viability assay (CTG assay), DLD1 wild type cells. It counts as cell-based. The following applies: Homo sapiens, DLD-1, 240 h; CellTiter Glo, read on Day 10, initial concentration 30 µM. The protocol: as §1, §2
The mark [2] stands for this setting: ATPase activity, ADP-Glo, ssDNA substrate, 60 min at room temperature, initial concentration 10 µM, read-out: Biochemical experiment IC50.

helicase domain of the Pol θ protein, sequence (O75417 102-554 limits assumed): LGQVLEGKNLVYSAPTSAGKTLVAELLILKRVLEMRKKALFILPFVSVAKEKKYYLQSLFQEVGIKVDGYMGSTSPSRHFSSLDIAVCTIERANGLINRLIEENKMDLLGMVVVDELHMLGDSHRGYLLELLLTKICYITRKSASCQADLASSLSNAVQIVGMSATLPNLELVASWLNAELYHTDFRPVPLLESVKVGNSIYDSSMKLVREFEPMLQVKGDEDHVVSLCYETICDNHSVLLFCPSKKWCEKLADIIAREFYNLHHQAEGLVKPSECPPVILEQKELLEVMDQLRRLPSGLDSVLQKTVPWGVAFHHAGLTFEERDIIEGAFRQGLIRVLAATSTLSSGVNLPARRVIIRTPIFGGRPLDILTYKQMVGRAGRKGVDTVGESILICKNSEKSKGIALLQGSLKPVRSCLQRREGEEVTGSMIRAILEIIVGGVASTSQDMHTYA

On to `COc1cnc(C(F)F)cc1-c1cc(-n2cccc(F)c2=O)ncc1C(=O)Nc1nc(C2CC2)ns1` [Example 1, N-(3-cyclopropyl-1,2,4-thiadiazol-5-yl)-2"-difluoromethyl-3-fluoro-5"-methoxy-2-oxo-2H-[1,2':4',4"-tripyridin]-5'-carboxamide], for which the IC50 in assay [1] was 6.92 nM; in the assay with DLD1 BRCA2-/- cells, 48.2 nM; with DLD1 wild type, above 50000 nM.

As for `COc1cnc(C(F)F)cc1-c1cc(-n2cccc(F)c2=O)ncc1C(=O)Nc1nc(-c2ccncc2)cs1` [Example 2, 2"-(difluoromethyl)-3-fluoro-5"-methoxy-2-oxo-N-(4-(pyridin-4-yl)thiazol-2-yl)-2H-[1,2':4',4"-terpyridine]-5'-carboxamide], the IC50 is 5.58 nM in assay [1] (setting [2]), 41.2 nM in the assay on DLD1 BRCA2-/- cells and above 50000 nM with DLD1 wild type.

As to `COc1cnc(C(F)F)cc1-c1cc(-n2cccc(F)c2=O)ncc1C(=O)Nc1nc(C2CC2)cs1` [Example 3, N-(4-cyclopropylthiazol-2-yl)-2"-(difluoromethyl)-3-fluoro-5"-methoxy-2-oxo-2H-[1,2':4',4"-terpyridine]-5'-carboxamide], the half-inhibitory concentration (IC50) in assay [1] (setting [2]) is 10.3 nM; with DLD1 BRCA2-/- cells, 79.4 nM; in the assay with DLD1 wild type, above 50000 nM.

As for `COc1cnc(C(F)F)cc1-c1cc(-n2cccc(F)c2=O)ncc1C(=O)Nc1nccs1` [Example 4, 2"-(difluoromethyl)-3-fluoro-5"-methoxy-2-oxo-N-(thiazol-2-yl)-2H-[1,2':4',4"-terpyridine]-5'-carboxamide], the figures for the IC50 (in assay [1] (setting [2]); with DLD1 BRCA2-/- cells; in the assay on DLD1 wild type) were 20.9 nM, 43 nM and above 50000 nM, respectively.

In the case of `COc1cnc(Cl)cc1-c1cc(C)ncc1C(=O)Nc1nc(C2CC2)ns1` [Example 5, 2'-chloro-N-(3-cyclopropyl-1,2,4-thiadiazol-5-yl)-5'-methoxy-6-methyl-[4,4'-bipyridine]-3-carboxamide], the IC50 was 132 nM in assay [1] (setting [2]) and above 50000 nM with DLD1 wild type.

Regarding `COc1cnc(C(F)F)cc1-c1cc(-n2cccc(F)c2=O)ncc1C(=O)Nc1nc(C(C)(C)C)ns1` [Example 6, N-(3-(tert-butyl)-1,2,4-thiadiazol-5-yl)-2"-(difluoromethyl)-3-fluoro-5"-methoxy-2-oxo-2H-[1,2':4',4"-terpyridine]-5'-carboxamide], the IC50 in assay [1] (setting [2]) was 15.2 nM; with DLD1 BRCA2-/- cells, 52.1 nM; with DLD1 wild type, above 50000 nM.

Turning to `COc1nsc(NC(=O)c2cnc(-n3cccc(F)c3=O)cc2-c2cc(C(F)F)ncc2OC)n1` [Example 7, 2"-(difluoromethyl)-3-fluoro-5"-methoxy-N-(3-methoxy-1,2,4-thiadiazol-5-yl)-2-oxo-2H-[1,2':4',4"-terpyridine]-5'-carboxamide], the half-inhibitory concentration (IC50) in assay [1] (setting [2]) is 4.02 nM; with DLD1 BRCA2-/- cells, 56.2 nM; in the assay with DLD1 wild type, above 50000 nM.

For `COc1cnc(C(F)F)cc1-c1cc(-n2cccc(F)c2=O)ncc1C(=O)Nc1nc(-c2ccccn2)ns1` [Example 8, 2"-(difluoromethyl)-3-fluoro-5"-methoxy-2-oxo-N-(3-(pyridin-2-yl)-1,2,4-thiadiazol-5-yl)-2H-[1,2':4',4"-terpyridine]-5'-carboxamide], the half-maximal inhibitory concentration (IC50) in assay [1] (setting [2]) turned out to be 8.23 nM; with DLD1 BRCA2-/- cells it was 56.2 nM; in the assay with DLD1 wild type, 19200 nM.

Consider `COc1cnc(C(F)F)cc1-c1cc(-n2cccc(F)c2=O)ncc1C(=O)Nc1nc(-c2ccccc2)ns1` [Example 9, 2"-(difluoromethyl)-3-fluoro-5"-methoxy-2-oxo-N-(3-phenyl-1,2,4-thiadiazol-5-yl)-2H-[1,2':4',4"-terpyridine]-5'-carboxamide], for which the IC50 in assay [1] (setting [2]) is 13.4 nM; in the assay on DLD1 BRCA2-/- cells it was 32.9 nM; in the assay with DLD1 wild type it was above 50000 nM.

For `COc1cnc(C(F)F)cc1-c1cc(-n2cccc(F)c2=O)ncc1C(=O)Nc1ncns1` [Example 10, 2"-(difluoromethyl)-3-fluoro-5"-methoxy-2-oxo-N-(1,2,4-thiadiazol-5-yl)-2H-[1,2':4',4''-terpyridine]-5'-carboxamide], the IC50 in assay [1] (setting [2]) was 5.81 nM; in the assay with DLD1 BRCA2-/- cells it was 89.1 nM; in the assay with DLD1 wild type, above 50000 nM.

As to `COc1cnc(C(F)F)cc1-c1cc(-n2cccc(F)c2=O)ncc1C(=O)Nc1nc(C)ns1` [Example 11, 2"-(difluoromethyl)-3-fluoro-5"-methoxy-N-(3-methyl-1,2,4-thiadiazol-5-yl)-2-oxo-2H-[1,2':4',4"-terpyridine]-5'-carboxamide], the IC50 in assay [1] (setting [2]) was 14 nM; with DLD1 BRCA2-/- cells, 171 nM; in the assay with DLD1 wild type it was above 50000 nM.

For `COc1cnc(C(F)F)cc1-c1cc(-n2cccc(F)c2=O)ncc1C(=O)Nc1nc(-c2ccc(F)cc2)ns1` [Example 12, 2"-(difluoromethyl)-3-fluoro-N-(3-(4-fluorophenyl)-1,2,4-thiadiazol-5-yl)-5"-methoxy-2-oxo-2H-[1,2':4',4"-terpyridine]-5'-carboxamide], the IC50 in the assay with DLD1 BRCA2-/- cells came to 25.1 nM; in the assay with DLD1 wild type, 23300 nM.

As for `COc1cnc(C(F)F)cc1-c1cc(-n2cccc(F)c2=O)ncc1C(=O)Nc1nc(-c2cccnc2)ns1` [Example 13, 2"-(difluoromethyl)-3-fluoro-5"-methoxy-2-oxo-N-(3-(pyridin-3-yl)-1,2,4-thiadiazol-5-yl)-2H-[1,2':4',4"-terpyridine]-5'-carboxamide], the IC50 is 17.6 nM in assay [1] (setting [2]), 54.1 nM with DLD1 BRCA2-/- cells and above 50000 nM in the assay on DLD1 wild type.

`COc1cnc(C(F)F)cc1-c1cc(-n2cccc(F)c2=O)ncc1C(=O)Nc1nc(-c2c(C)cnn2C)ns1` [Example 14, 2"-(difluoromethyl)-N-(3-(1,4-dimethyl-1H-pyrazol-5-yl)-1,2,4-thiadiazol-5-yl)-3-fluoro-5"-methoxy-2-oxo-2H-[1,2':4',4"-terpyridine]-5'-carboxamide]: the concentration for half-maximal inhibition (IC50) in assay [1] (setting [2]) is 3.63 nM; in the assay on DLD1 BRCA2-/- cells it was 4.82 nM; in the assay on DLD1 wild type, above 50000 nM.

In the case of `COc1cnc(C(F)F)cc1-c1cc(-n2cccc(F)c2=O)ncc1C(=O)Nc1nc(-c2ccncc2)ns1` [Example 15, 2"-(difluoromethyl)-3-fluoro-5"-methoxy-2-oxo-N-(3-(pyridin-4-yl)-1,2,4-thiadiazol-5-yl)-2H-[1,2':4',4"-terpyridine]-5'-carboxamide], the half-inhibitory concentration (IC50) in assay [1] (setting [2]) is 5.58 nM; in the assay on DLD1 BRCA2-/- cells it was 10.8 nM; in the assay with DLD1 wild type, above 5000 nM.

For `CCCc1nsc(NC(=O)c2cnc(-n3cccc(F)c3=O)cc2-c2cc(C(F)F)ncc2OC)n1` [Example 16, 2"-(difluoromethyl)-3-fluoro-5"-methoxy-2-oxo-N-(3-propyl-1,2,4-thiadiazol-5-yl)-2H-[1,2':4',4"-terpyridine]-5'-carboxamide], the IC50 was 9.69 nM in assay [1] (setting [2]), 10 nM in the assay with DLD1 BRCA2-/- cells and above 5000 nM in the assay on DLD1 wild type.

For `COc1cnc(C(F)F)cc1-c1cc(-n2cccc(F)c2=O)ncc1C(=O)Nc1nc(C(C)C)ns1` [Example 17, 2"-(difluoromethyl)-3-fluoro-N-(3-isopropyl-1,2,4-thiadiazol-5-yl)-5"-methoxy-2-oxo-2H-[1,2':4',4"-terpyridine]-5'-carboxamide], the half-inhibitory concentration (IC50) in assay [1] (setting [2]) was 8.98 nM; with DLD1 BRCA2-/- cells, 3.98 nM; with DLD1 wild type it was above 5000 nM.

Consider `COc1cnc(C(F)F)cc1-c1cc(-n2cccc(F)c2=O)ncc1C(=O)Nc1nc(-c2ncccn2)ns1` [Example 18, 2"-(difluoromethyl)-3-fluoro-5"-methoxy-2-oxo-N-(3-(pyrimidin-2-yl)-1,2,4-thiadiazol-5-yl)-2H-[1,2':4',4"-terpyridine]-5'-carboxamide], for which the results for the 50% inhibitory concentration (IC50) (in assay [1] (setting [2]); in the assay on DLD1 BRCA2-/- cells; with DLD1 wild type) were 25.1 nM, 5.62 nM and 4300 nM, respectively.

As to `COc1cnc(C(F)F)cc1-c1cc(-n2cccc(F)c2=O)ncc1C(=O)Nc1nc(-c2cnccn2)ns1` [Example 19, 2"-(difluoromethyl)-3-fluoro-5"-methoxy-2-oxo-N-(3-(pyrazin-2-yl)-1,2,4-thiadiazol-5-yl)-2H-[1,2':4',4"-terpyridine]-5'-carboxamide], the concentration for half-maximal inhibition (IC50) in assay [1] (setting [2]) is 32.1 nM; in the assay with DLD1 BRCA2-/- cells, 56.2 nM; in the assay with DLD1 wild type, above 5000 nM.

With `COc1cnc(C(F)F)cc1-c1cc(-n2cccc(F)c2=O)ncc1C(=O)Nc1nc(N2CC3CC(C2)N3)ns1` [Example 27, N-(3-(3,6-diazabicyclo[3.1.1]heptan-3-yl)-1,2,4-thiadiazol-5-yl)-2"-(difluoromethyl)-3-fluoro-5"-methoxy-2-oxo-2H-[1,2':4',4"-terpyridin]-5'-carboxamide], the IC50 in assay [1] (setting [2]) was 158 nM; in the assay with DLD1 wild type it was above 5000 nM.

In the case of `COc1cnc(C(F)F)cc1-c1cc(-n2cccc(F)c2=O)ncc1C(=O)Nc1nc(N2CC3CC(C2)N3C)ns1` [Example 29, 2"-(difluoromethyl)-3-fluoro-5"-methoxy-N-(3-(6-methyl-3,6-diazabicyclo[3.1.1]heptan-3-yl)-1,2,4-thiadiazol-5-y)-2-oxo-2H-[1,2':4',4"-terpyridin]-5'-carboxamide], the IC50 was 244 nM in assay [1] and above 5000 nM in the assay with DLD1 wild type.

`COc1cnc(C(F)F)cc1-c1cc(-n2cccc(F)c2=O)ncc1C(=O)Nc1nc(N)ns1` [Example 30, N-(3-amino-1,2,4-thiadiazol-5-yl)-2"-(difluoromethyl)-3-fluoro-5"-methoxy-2-oxo-2H-[1,2':4',4"-terpyridin]-5'-carboxamide]: the IC50 was 34.1 nM in assay [1] (setting [2]) and above 5000 nM in the assay with DLD1 wild type.

Turning to `COc1cnc(C(F)F)cc1-c1cc(-n2cccc(F)c2=O)ncc1C(=O)Nc1nc(NC(C)=O)ns1` [Example 31, N-(3-acetamino-1,2,4-thiadiazol-5-yl)-2"-(difluoromethyl)-3-fluoro-5"-methoxy-2-oxo-2H-[1,2':4',4"-terpyridin]-5'-carboxamide], the IC50 was 14.4 nM in assay [1] (setting [2]) and above 5000 nM in the assay with DLD1 wild type.
